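Method: 48-hour compound exposure of cells in 96-well plates, five concentrations, linear interpolation of endpoints. Here, GI50 denotes the concentration required for 50% inhibition of growth. TGI: total growth inhibition.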
What was measured:
Experiment in all cases: NCI anticancer screen, dose series, 48 h
DU-145 prostate = system: DU-145 prostate
MOLT-4 leukemia = system: MOLT-4 leukemia
UACC-257 melanoma = system: UACC-257 melanoma
CAKI-1 renal = system: CAKI-1 renal
SF-539 CNS = system: SF-539 CNS
RXF 393 renal = system: RXF 393 renal
M14 melanoma = system: M14 melanoma
KM12 colon = system: KM12 colon
786-0 renal = system: 786-0 renal
SK-MEL-5 melanoma = system: SK-MEL-5 melanoma
NCI-H460 lung = system: NCI-H460 lung
COLO 205 colon = system: COLO 205 colon
U251 CNS = system: U251 CNS
CCRF-CEM leukemia = system: CCRF-CEM leukemia
MCF7 breast = system: MCF7 breast
PC-3 prostate = system: PC-3 prostate
EKVX NSCLC = system: EKVX NSCLC
RPMI-8226 leukemia = system: RPMI-8226 leukemia
NCI-H522 lung = system: NCI-H522 lung
MDA-MB-435 = system: MDA-MB-435
HT29 colon = system: HT29 colon
HOP-92 NSCLC = system: HOP-92 NSCLC
T-47D breast = system: T-47D breast
OVCAR-5 ovarian = system: OVCAR-5 ovarian
MALME-3M melanoma = system: MALME-3M melanoma
TK-10 renal = system: TK-10 renal
SF-295 CNS = system: SF-295 CNS
HS 578T breast = system: HS 578T breast
SNB-75 CNS = system: SNB-75 CNS
A498 renal = system: A498 renal
HCT-15 colon = system: HCT-15 colon
MDA-MB-231 breast = system: MDA-MB-231 breast
K-562 leukemia = system: K-562 leukemia
SK-MEL-2 melanoma = system: SK-MEL-2 melanoma
HL-60(TB) leukemia = system: HL-60(TB) leukemia
SR leukemia = system: SR leukemia
HCT-116 colon = system: HCT-116 colon
LOX IMVI melanoma = system: LOX IMVI melanoma
HCC-2998 colon = system: HCC-2998 colon
IGROV1 ovarian = system: IGROV1 ovarian
A549 NSCLC = system: A549 NSCLC
ACHN renal = system: ACHN renal
UACC-62 melanoma = system: UACC-62 melanoma
SF-268 CNS = system: SF-268 CNS
HOP-62 NSCLC = system: HOP-62 NSCLC
BT-549 breast = system: BT-549 breast
SK-OV-3 ovarian = system: SK-OV-3 ovarian
SNB-19 CNS = system: SNB-19 CNS

In the case of `Nc1nc(-c2cccc([N+](=O)[O-])c2)c(N=Nc2ccccc2[N+](=O)[O-])s1`, the GI50 (DU-145 prostate) is reported as 4.79 µM, the TGI (DU-145 prostate) is reported as greater than 100 µM and the GI50 (MOLT-4 leukemia) is reported as 8.73 µM. It also gave a TGI (MOLT-4 leukemia) greater than 100 µM, a GI50 (UACC-257 melanoma) of 63.4 µM and a TGI (UACC-257 melanoma) greater than 100 µM. For the same molecule, the GI50 (CAKI-1 renal) was 1.43 µM, the TGI (CAKI-1 renal) was 2.98 µM and the GI50 (SF-539 CNS) was 1.47 µM. For the same molecule, the TGI (SF-539 CNS) was 2.89 µM, the GI50 (RXF 393 renal) was 1.64 µM and the TGI (RXF 393 renal) was 3.2 µM. The GI50 (M14 melanoma) was 4.84 µM, the TGI (M14 melanoma) was 61.3 µM and the GI50 (KM12 colon) was 5.39 µM. It also gave a TGI (KM12 colon) greater than 100 µM, a GI50 (786-0 renal) of 1.54 µM and a TGI (786-0 renal) of 3.01 µM. The GI50 (SK-MEL-5 melanoma) was 3.41 µM, the TGI (SK-MEL-5 melanoma) was 31.1 µM and the GI50 (NCI-H460 lung) was 2.25 µM. For the same molecule, the TGI (NCI-H460 lung) was greater than 100 µM, the GI50 (COLO 205 colon) was 42.8 µM and the TGI (COLO 205 colon) was greater than 100 µM. It also gave a GI50 (U251 CNS) of 1.69 µM, a TGI (U251 CNS) of 3.29 µM and a GI50 (CCRF-CEM leukemia) of 3.42 µM. It also gave a TGI (CCRF-CEM leukemia) greater than 100 µM, a GI50 (MCF7 breast) of 18.8 µM and a TGI (MCF7 breast) greater than 100 µM. For the same molecule, the GI50 (PC-3 prostate) was 3.43 µM, the TGI (PC-3 prostate) was greater than 100 µM and the GI50 (EKVX NSCLC) was 6.05 µM. The TGI (EKVX NSCLC) was greater than 100 µM, the GI50 (RPMI-8226 leukemia) was 4.18 µM and the TGI (RPMI-8226 leukemia) was greater than 100 µM. For the same molecule, the GI50 (NCI-H522 lung) was 1.94 µM, the TGI (NCI-H522 lung) was 14.4 µM and the GI50 (MDA-MB-435) was 0.865 µM. For the same molecule, the TGI (MDA-MB-435) was greater than 100 µM, the GI50 (HT29 colon) was 59 µM and the TGI (HT29 colon) was greater than 100 µM. The GI50 (HOP-92 NSCLC) was 0.285 µM, the TGI (HOP-92 NSCLC) was 3.63 µM and the GI50 (T-47D breast) was 4.04 µM. The TGI (T-47D breast) was greater than 100 µM, the GI50 (OVCAR-5 ovarian) was 8.34 µM and the TGI (OVCAR-5 ovarian) was greater than 100 µM. For the same molecule, the GI50 (MALME-3M melanoma) was 2.9 µM, the TGI (MALME-3M melanoma) was 8.6 µM and the GI50 (TK-10 renal) was 2.91 µM. The TGI (TK-10 renal) was 5.95 µM, the GI50 (SF-295 CNS) was 2.8 µM and the TGI (SF-295 CNS) was 14.1 µM. For the same molecule, the GI50 (HS 578T breast) was 2.55 µM, the TGI (HS 578T breast) was 9.04 µM and the GI50 (SNB-75 CNS) was 1.44 µM. It also gave a TGI (SNB-75 CNS) of 3.61 µM, a GI50 (A498 renal) of 7.62 µM and a TGI (A498 renal) of 30.5 µM. For the same molecule, the GI50 (HCT-15 colon) was 2.35 µM, the TGI (HCT-15 colon) was greater than 100 µM and the GI50 (MDA-MB-231 breast) was 1.46 µM. It also gave a TGI (MDA-MB-231 breast) of 3.26 µM, a GI50 (K-562 leukemia) of 5.57 µM and a TGI (K-562 leukemia) greater than 100 µM. It also gave a GI50 (SK-MEL-2 melanoma) of 14.8 µM, a TGI (SK-MEL-2 melanoma) of 38.7 µM and a GI50 (HL-60(TB) leukemia) of 48.7 µM. It also gave a TGI (HL-60(TB) leukemia) greater than 100 µM, a GI50 (SR leukemia) of 22.7 µM and a TGI (SR leukemia) greater than 100 µM. For the same molecule, the GI50 (HCT-116 colon) was 1.51 µM, the TGI (HCT-116 colon) was 5.73 µM and the GI50 (LOX IMVI melanoma) was 1.83 µM. The TGI (LOX IMVI melanoma) was 6 µM, the GI50 (HCC-2998 colon) was 53.5 µM and the TGI (HCC-2998 colon) was greater than 100 µM. It also gave a GI50 (IGROV1 ovarian) of 2.32 µM, a TGI (IGROV1 ovarian) of 5.84 µM and a GI50 (A549 NSCLC) of 20.7 µM. The TGI (A549 NSCLC) was greater than 100 µM, the GI50 (ACHN renal) was 1.27 µM and the TGI (ACHN renal) was 2.75 µM. It also gave a GI50 (UACC-62 melanoma) of 2.11 µM, a TGI (UACC-62 melanoma) greater than 100 µM and a GI50 (SF-268 CNS) of 3.62 µM. For the same molecule, the TGI (SF-268 CNS) was greater than 100 µM, the GI50 (HOP-62 NSCLC) was 2.04 µM and the TGI (HOP-62 NSCLC) was 6.33 µM. The GI50 (BT-549 breast) was 4.66 µM, the TGI (BT-549 breast) was 32.7 µM and the GI50 (SK-OV-3 ovarian) was 2.13 µM. For the same molecule, the TGI (SK-OV-3 ovarian) was 5.2 µM, the GI50 (SNB-19 CNS) was 3.01 µM and the TGI (SNB-19 CNS) was 14.4 µM.

Reference: PubChem BioAssay (NCI)
